Measured values from patent US9447100B2, “Substituted pyrazolo[1,5-A] pyrimidines as calcium receptor modulating agents” (Takeda Pharmaceutical Company Limited, priority 2002, dated 2016).

melting point [°C]	SMILES
158 to 160	CCC1(CC)CC(c2ccccc2)Nc2c(C(=O)O)cnn21 (centres unmarked) [Example 37, 7,7-diethyl-5-phenyl-4,5,6,7-tetrahydropyrazolo[1,5-a]pyrimidine-3-carboxylic acid]
158 to 160	O=C(O)c1cnn2c1NC(c1ccccc1)C1CCCCC12 (centres unmarked) [Example 39, 5-phenyl-4,5,5a,6,7,8,9,9a-octahydropyrazolo[1,5-a]quinazoline-3-carboxylic acid]
162 to 163	Cc1nn2c(c1C(=O)NC13CC4CC(CC(C4)C1)C3)NC(c1ccccc1)CC2C(F)(F)F (centres unmarked) [Example 42]
280 to 282	O=C(NC1C2CC3CC(C2)CC1C3)c1cnn2c1NC(c1ccc3ccccc3c1)CC2C(F)(F)F (centres unmarked) [Example 90, N-(2-adamantyl)-5-(2-naphthyl)-7-(trifluoromethyl)-4,5,6,7-tetrahydropyrazolo[1,5-a]pyrimidine-3-carboxamide]
94 to 95	CC(NC(=O)c1cnn2c1NC(c1ccc3ccccc3c1)CC2C(F)(F)F)C1C2CC3CC(C2)CC1C3 (centres unmarked) [Example 91, N-(1-(2-adamantyl)ethyl)-5-(2-naphthyl)-7-(trifluoromethyl)-4,5,6,7-tetrahydropyrazolo[1,5-a]pyrimidine-3-carboxamide]
259 to 261	O=C(NC12CC3CC(CC(C3)C1)C2)c1cnn2c1NC(c1ccccc1)CC21CCCC1 (centres unmarked) [Example 183, N-(1-adamantyl)-5′-phenyl-5′,6′-dihydro-4′H-spiro[cyclopentane-1,7′-pyrazolo[1,5-a]pyrimidine]-3′-carboxamide]
174 to 175	CCC(CC)(NC(=O)c1cnn2c1NC(c1ccccc1)CC2(CC)CC)c1ccc(C(F)(F)F)cc1 (centres unmarked) [Example 185, 7,7-diethyl-N-(1-ethyl-1-(4-(trifluoromethyl)phenyl)propyl)-5-phenyl-4,5,6,7-tetrahydropyrazolo[1,5-a]pyrimidine-3-carboxamide]
205 to 207	CCC(CC)(NC(=O)c1cnn2c1NC(c1ccccc1)CC21CCCC1)c1ccc(C(F)(F)F)cc1 (centres unmarked) [Example 191, N-(1-ethyl-1-(4-(trifluoromethyl)phenyl)propyl)-5′-phenyl-5′,6′-dihydro-4′H-spiro[cyclopentane-1,7′-pyrazolo[1,5-a]pyrimidine]-3′-carboxamide]
274 to 275	CCC(CC)(NC(=O)c1cnn2c1NC(c1ccccc1)CC21CCCCC1)c1ccc(C(F)(F)F)cc1 (centres unmarked) [Example 200, N-(1-ethyl-1-(4-(trifluoromethyl)phenyl)propyl)-5′-phenyl-5′,6′-dihydro-4′H-spiro[cyclohexane-1,7′-pyrazolo[1,5-a]pyrimidine]-3′-carboxamide]
213 to 214	CCC(CC)(NC(=O)c1cnn2c1NC(c1ccccc1)C1CCCCC12)c1ccc(C(F)(F)F)cc1 (centres unmarked) [Example 201, N-(1-ethyl-1-(4-(trifluoromethyl)phenyl)propyl)-5-phenyl-4,5,5a,6,7,8,9,9a-octahydropyrazolo[1,5-a]quinazoline-3-carboxamide]
241 to 243	COc1ccc(C2CC(C(F)(F)F)n3ncc(C(=O)NC45CC6CC(CC(C6)C4)C5)c3N2)cc1 (centres unmarked) [Example 202, N-(1-adamantyl)-5-(4-methoxyphenyl)-7-(trifluoromethyl)-4,5,6,7-tetrahydropyrazolo[1,5-a]pyrimidine-3-carboxamide]
230 to 231	O=C(NC12CC3CC(CC(C3)C1)C2)c1cnn2c1NC(c1ccco1)CC2C(F)(F)F (centres unmarked) [Example 270, N-(1-adamantyl)-5-(2-furyl)-7-(trifluoromethyl)-4,5,6,7-tetrahydropyrazolo[1,5-a]pyrimidine-3-carboxamide]
169 to 172	O=C(NCc1ccc(Oc2ccc(F)cc2)cc1)c1cnn2c1NC(c1ccccc1)CC2C(F)(F)F (centres unmarked) [Example 271, N-(4-(4-fluorophenoxy)benzyl)-5-phenyl-7-(trifluoromethyl)-4,5,6,7-tetrahydropyrazolo[1,5-a]pyrimidine-3-carboxamide]
187 to 188	CC(C)(Cc1ccc2ccccc2c1)NC(=O)c1cnn2c1NC(c1ccccc1)CC2C(F)(F)F (centres unmarked) [Example 272, N-(1,1-dimethyl-2-(2-naphthyl)ethyl)-5-phenyl-7-(trifluoromethyl)-4,5,6,7-tetrahydropyrazolo[1,5-a]pyrimidine-3-carboxamide]
181 to 182	O=C(c1cnn2c1NC(c1ccccc1)CC2C(F)(F)F)N1CCN(C(c2ccccc2)c2ccccc2)CC1 (centres unmarked) [Example 274, 3-((4-benzhydryl-1-piperazinyl)carbonyl)-5-phenyl-7-(trifluoromethyl)-4,5,6,7-tetrahydropyrazolo[1,5-a]pyrimidine]
183 to 184	O=C(c1cnn2c1NC(c1ccccc1)CC2C(F)(F)F)N1CCc2nn(-c3ccc(Cl)cc3)cc2C1 (centres unmarked) [Example 275, 2-(4-chlorophenyl)-5-((5-phenyl-7-(trifluoromethyl)-4,5,6,7-tetrahydropyrazolo[1,5-a]pyrimidin-3-yl)carbonyl)-4,5,6,7-tetrahydro-2H-pyrazolo[4,3-c]pyridine]

melting point [°C]	SMILES
167 to 168	Cc1ccc(-n2cc3c(n2)CCN(C(=O)c2cnn4c2NC(c2ccccc2)CC4C(F)(F)F)C3)cc1 (centres unmarked) [Example 276, 2-(4-methylphenyl)-5-((5-phenyl-7-(trifluoromethyl)-4,5,6,7-tetrahydropyrazolo[1,5-a]pyrimidin-3-yl)carbonyl)-4,5,6,7-tetrahydro-2H-pyrazolo[4,3-c]pyridine]
205 to 206	O=C(NCc1ccc(-c2csnn2)cc1)c1cnn2c1NC(c1ccccc1)CC2C(F)(F)F (centres unmarked) [Example 278, 5-phenyl-N-(4-(1,2,3-thiadiazol-4-yl)benzyl)-7-(trifluoromethyl)-4,5,6,7-tetrahydropyrazolo[1,5-a]pyrimidine-3-carboxamide]
238 to 239	COc1ccccc1C1CC(C(F)(F)F)n2ncc(C(=O)NC34CC5CC(CC(C5)C3)C4)c2N1 (centres unmarked) [Example 279, N-(1-adamantyl)-5-(2-methoxyphenyl)-7-(trifluoromethyl)-4,5,6,7-tetrahydropyrazolo[1,5-a]pyrimidine-3-carboxamide]
211 to 212	COc1cccc(C2CC(C(F)(F)F)n3ncc(C(=O)NC45CC6CC(CC(C6)C4)C5)c3N2)c1 (centres unmarked) [Example 280, N-(1-adamantyl)-5-(3-methoxyphenyl)-7-(trifluoromethyl)-4,5,6,7-tetrahydropyrazolo[1,5-a]pyrimidine-3-carboxamide]
256 to 257	O=C(NC12CC3CC(CC(C3)C1)C2)c1cnn2c1NC(c1ccccc1Cl)CC2C(F)(F)F (centres unmarked) [Example 281, N-(1-adamantyl)-5-(2-chlorophenyl)-7-(trifluoromethyl)-4,5,6,7-tetrahydropyrazolo[1,5-a]pyrimidine-3-carboxamide]
246 to 247	O=C(NC12CC3CC(CC(C3)C1)C2)c1cnn2c1NC(c1cccc(Cl)c1)CC2C(F)(F)F (centres unmarked) [Example 282, N-(1-adamantyl)-5-(3-chlorophenyl)-7-(trifluoromethyl)-4,5,6,7-tetrahydropyrazolo[1,5-a]pyrimidine-3-carboxamide]
221 to 222	CC(C)(CC1Cc2ccccc2C1)NC(=O)c1cnn2c1NC(c1ccccc1)CC2C(F)(F)F (centres unmarked) [Example 292, N-(2-(2,3-dihydro-1H-inden-2-yl)-1,1-dimethylethyl)-5-phenyl-7-(trifluoromethyl)-4,5,6,7-tetrahydropyrazolo[1,5-a]pyrimidine-3-carboxamide]
221 to 222	CC(C)(NC(=O)c1cnn2c1NC(c1ccccc1)CC2C(F)(F)F)c1cccc2ccccc12 (centres unmarked) [Example 368, N-(1-methyl-1-(1-naphthyl)ethyl)-5-phenyl-7-(trifluoromethyl)-4,5,6,7-tetrahydropyrazolo[1,5-a]pyrimidine-3-carboxamide]
290 to 291	O=C(NC1(C(=O)N2CCOCC2)CCCCC1)c1cnn2c1N[C@H](c1ccccc1)C[C@@H]2C(F)(F)F [Example 370]
235 to 236	CC1(C)CC(c2ccccc2)Nc2c(C(=O)NC34CC5CC(CC(C5)C3)C4)cnn21 (centres unmarked) [Example 374, N-(1-adamantyl)-7,7-dimethyl-5-phenyl-4,5,6,7-tetrahydropyrazolo[1,5-a]pyrimidine-3-carboxamide]
165 to 166	CCC(CC)(NC(=O)c1cnn2c1NC(c1ccccc1)CC2C(F)(F)F)c1ccccc1 (centres unmarked) [Example 396, N-(1-ethyl-1-phenylpropyl)-5-phenyl-7-(trifluoromethyl)-4,5,6,7-tetrahydropyrazolo[1,5-a]pyrimidine-3-carboxamide]
180 to 181	CCC(CC)(NC(=O)c1cnn2c1NC(c1ccccc1)CC2C(F)(F)F)c1ccc(Br)cc1 (centres unmarked) [Example 397, N-(1-(4-bromophenyl)-1-ethylpropyl)-5-phenyl-7-(trifluoromethyl)-4,5,6,7-tetrahydropyrazolo[1,5-a]pyrimidine-3-carboxamide]
167 to 168	CCC(CC)(NC(=O)c1cnn2c1NC(c1ccccc1)CC2C(F)(F)F)c1cccc(Br)c1 (centres unmarked) [Example 398, N-(1-(3-bromophenyl)-1-ethylpropyl)-5-phenyl-7-(trifluoromethyl)-4,5,6,7-tetrahydropyrazolo[1,5-a]pyrimidine-3-carboxamide]
225 to 226	CCC(NC(=O)c1cnn2c1NC(c1ccccc1)CC2C(F)(F)F)c1ccccc1C (centres unmarked) [Example 399, N-(1-(2-methylphenyl)propyl)-5-phenyl-7-(trifluoromethyl)-4,5,6,7-tetrahydropyrazolo[1,5-a]pyrimidine-3-carboxamide]
204 to 205	CCC(NC(=O)c1cnn2c1NC(c1ccccc1)CC2C(F)(F)F)c1ccccc1F (centres unmarked) [Example 400, N-(1-(2-fluorophenyl)propyl)-5-phenyl-7-(trifluoromethyl)-4,5,6,7-tetrahydropyrazolo[1,5-a]pyrimidine-3-carboxamide]
236 to 237	CCC(NC(=O)c1cnn2c1NC(c1ccccc1)CC2C(F)(F)F)c1ccccc1Br (centres unmarked) [Example 401, N-(1-(2-bromophenyl)propyl)-5-phenyl-7-(trifluoromethyl)-4,5,6,7-tetrahydropyrazolo[1,5-a]pyrimidine-3-carboxamide]
